Patent US8383852B2, “Compounds having a cyclic moiety and compositions for delivering active agents” (Emisphere Technologies, Inc., priority 2007, dated 2013)

System: male, Sprague-Dawley rats
Experiment: Oral delivery of insulin in rats: change in whole blood glucose after insulin plus delivery agent
Type: in vivo, rat
Details: oral gavage
Description: Human recombinant insulin (ICN Biomedicals, Aurora, Ohio) was dissolved in deionized water (ph ˜6.5) to obtain stock insulin solutions having a concentration of 15 mg/ml. 3-[4-(cyclopropylmethoxy)phenyl]propanoic acid (Emisphere Technologies, Tarrytown, N.Y.) was dissolved in deionized water to obtain a 200 mg/ml delivery agent solution. The free acid form of delivery agent as converted to the sodium salt by adding one equivalent of sodium hydroxide. Solutions were vortexted, sonicated, and heated. If necessary, additional sodium hydroxide was added in μl quantities to achieve uniform solubility in the delivery agent solutions. Solutions were adjusted to a pH of 3.5-8.5 by the addition of either hydrochloric acid or sodium hydroxide, as appropriate. The insulin stock solution was then added to the delivery agent solutions to obtain an administration solution ultimately having an insulin concentration of 0.5 mg/ml. After solubilization and drug addition, administration solutions were brought to a final volume by the addition of deionized water.
Insulin was administered to male, Sprague-Dawley rats either alone or in combination with delivery agent by oral gavage (PO). Typically, rats were fasted for 18-24 hours prior to dosing. A Rusch 8 French catheter was cut to 11 cm in length and adapted to fit a 1 ml syringe. The syringe was filled with dosing solution and the catheter was inserted into the rat mouth and fed down the esophagus (10.0 cm). The dosing solution was delivered by pressing the syringe plunger while holding the rat in an upright position. The doses of delivery agent and
[…] The dose volume was 1 ml/kg. The weight of the rats in this invention ranges from 250 to 300 grams. The rat was weighted prior to the test and the dose volume was adjusted accordingly.
Immediate to each blood sampling point, rats were exposed briefly (˜10 seconds) to carbon dioxide until prostrate. A 77-mm capillary tube was inserted into the retroorbital sinus. Typically, blood samples were collected prior to dosing (time=0) and at 15, 30, 45, and 60 minutes after dosing.
To determine the pharmacodynamic response, a hand-held glucometer (OneTouch Ultra, LifeScan—Johnson & Johnson, New Brunswick, N.J.) was used to measure whole blood glucose after administration of insulin or insulin and delivery agent. After discarding the first drop of blood, a small sample (˜5-10 μls) was touched to the glucometer test strip (OneTouch Ultra, LifeScan) and a blood glucose reading was generated by the meter. Typically, samples were collected prior to dosing (time 0) and at 15, 30, 45, and 60 minutes after dosing.

[1] = 15 min., insulin/delivery agent = 0.5 mg/200 mg per kg
[2] = 30 min., insulin/delivery agent = 0.5 mg/200 mg per kg
[3] = 45 min., insulin/delivery agent = 0.5 mg/200 mg per kg
[4] = 60 min., insulin/delivery agent = 0.5 mg/200 mg per kg
[5] = time 0, insulin/delivery agent = 0.5 mg/200 mg per kg

SMILES	Percent change in whole blood glucose from baseline (negative = reduction) [1] [%]	Percent change in whole blood glucose from baseline (negative = reduction) [2] [%]	Percent change in whole blood glucose from baseline (negative = reduction) [3] [%]	Percent change in whole blood glucose from baseline (negative = reduction) [4] [%]	Percent change in whole blood glucose from baseline (negative = reduction) [5]
O=C(O)c1ccc(OCC2CCC2)cc1 [Compound 2, 4-(cyclobutylmethoxy)benzoic acid]	−20.04	−32.2	−32.51	−19.95	7.51%
COc1cc(CC(=O)O)ccc1OCC1CCC1 [Compound 3, [4-(cyclobutylmethoxy)-3-methoxyphenyl]acetic acid]	−15.04	−22.90	−21.04	−19.74	6.88%
O=C(O)c1ccccc1OCC1CCC1 [Compound 6, 2-(cyclobutylmethoxy)benzoic acid]	−9.25	−20.51	−2.61	−2.75	6.37%
O=C(O)c1ccccc1OCC1CC1 [Compound 9, 2-(cyclopropylmethoxy)benzoic acid]	−1.29	−6.99	−11.40	−11.75	−1.59%
COc1cc(CC(=O)O)ccc1OCC1CC1 [Compound 8, [4-(cyclopropylmethoxy)-3-methoxyphenyl]acetic acid]	−1.61	−14.21	−16.12	−18.19	18.75%
COc1cc(CC(=O)O)ccc1OC1CCCC1 [Compound 7, [4-(cyclopentyloxy)-3-methoxyphenyl]acetic acid]	−7.15	−17.37	−12.75	−12.77	11.87%
O=C(O)c1ccccc1OC1CCCC1 [Compound 10, 2-(cyclopentyloxy)benzoic acid]	−6.94	−25.22	−29.27	−29.91	+16.39%
O=C(O)c1ccccc1OCC1CCCCC1 [Compound 11, 2-(cyclohexylmethoxy)benzoic acid]	−4.82	−6.23	−19.71	−19.54	−1.27%
O=C(O)Cc1ccc(OCC2CC2)cc1 [Compound 5, [4-(cyclopropylmethoxy)phenyl]acetic acid]	−17.53	−26.944	−22.92	−18.62	−1.91%
O=C(O)c1ccc(OCC2CC2)cc1 [Compound 4, 4-(cyclopropylmethoxy)benzoic acid]	−11.80	−32.15	−21.14	−16.78	1.72%
O=C(O)CCc1ccc(OCC2CC2)cc1 [Compound 1, 3-[4-(cyclopropylmethoxy)phenyl]propanoic acid]	−17.26	−38.35	−43.75	−42.48	−4.64%
